From US6849761B2, “Substituted naphthoic acid derivatives useful in the treatment of insulin resistance and hyperglycemia” (Wyeth, priority 2002, dated 2005)
Counter-ions that a name gives are not always drawn.

Test system: not given
Test: not given
Conditions: not given

| melting point | Compound |
| --- | --- |
| 235 to 237 °C | COc1ccc2cc(C(=O)O)ccc2c1CNCc1ccc(OC(F)(F)F)cc1 (as salt: salt) [Example 1, 6-Methoxy-5-({[4-(trifluoromethoxy)benzyl]amino}methyl)-2-naphthoic acid] |
| 268 to 270 °C (dec.) | COc1ccc2cc(C(=O)O)ccc2c1CNCc1ccc(F)cc1 (as salt: salt) [Example 2, 5-{[(4-Fluorobenzyl)amino]methyl)-6-methoxy-2-naphthoic acid] |
| 283 to 285 °C (dec.) | COc1ccc2cc(C(=O)O)ccc2c1CNCc1ccc(S(N)(=O)=O)cc1 (as salt: salt) [Example 3, 5-({[4-(Aminosulfonyl)benzyl]amino}methyl)-6-methoxy-2-naphthoic acid] |
| > 215 °C (dec.) | COc1ccc2cc(C(=O)O)ccc2c1CNCc1ccc(N(C)C)cc1 (as salt: salt) [Example 4, 5-({[4-(Dimethylamino)benzyl]amino}methyl)-6-methoxy-2-naphthoic acid] |
| > 266 °C (dec.) | O=C(O)COc1ccc2cc(C(=O)O)ccc2c1CNCc1ccc(OC(F)(F)F)cc1 [Example 5, 6-(Carboxymethoxy)-5-({[4-(trifluoromethoxy)benzyl]amino}methyl)-2-naphthoic acid] |

Biological target: T1, human-derived recombinant PTPase-1B (hPTP-1B) (Homo sapiens, UniProt P18031)
T1 sequence (P18031 1-435): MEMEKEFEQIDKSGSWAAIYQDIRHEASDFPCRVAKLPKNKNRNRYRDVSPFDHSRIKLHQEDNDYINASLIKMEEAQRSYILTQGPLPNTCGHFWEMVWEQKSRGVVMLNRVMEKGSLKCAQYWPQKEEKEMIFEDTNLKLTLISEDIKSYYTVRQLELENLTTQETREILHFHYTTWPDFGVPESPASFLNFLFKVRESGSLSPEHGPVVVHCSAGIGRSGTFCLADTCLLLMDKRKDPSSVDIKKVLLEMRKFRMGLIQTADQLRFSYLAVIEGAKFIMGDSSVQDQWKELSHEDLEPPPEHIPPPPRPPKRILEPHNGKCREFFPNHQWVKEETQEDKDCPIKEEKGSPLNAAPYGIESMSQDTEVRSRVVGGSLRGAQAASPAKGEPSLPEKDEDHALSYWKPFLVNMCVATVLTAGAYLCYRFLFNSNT
Test: PTP-1B inhibition assay (DIFMUP fluorescence kinetic assay)
Format: biochemical
Conditions: inhibitor at 40 μM; 20 μM DIFMUP; 1 nM enzyme; calculated from average velocity Va vs control
Procedure: Measurement of PTPase activity: Compounds are assayed in an enzyme activity-based assay. PTP-1B is known to dephosphorylate phosphopeptides. This assay is a fluorescence intensity based kinetic assay, taking advantage of a non-peptidyl substrate, 6,8-difluoro-4-methylumbelliferyl phosphate (DIFMUP). When excited at 358 nm, the dephosphorylated product of DIFMUP emits at 450 nm.
Examples 1-5 (set forth below) were analyzed as follows. The assay was conducted in black 384-well non-treated plates (Costar#3710). The assay buffer contained 50 mM 3,3-dimethyl glutaric acid, pH 7.0, 48 mM NaCl, 1 mM EDTA. Inhibitors were prepared as DMSO solution and diluted to desired concentrations using 50 mM HEPES, pH 7.4. PTP-1B was diluted to a 2.5 nM working stock using the assay buffer containing additional 0.001% (w/v) hydrogenated Triton X-100. DIFMUP was diluted to 40 μM using the assay buffer. 5 μl of inhibitor was first dispensed into assay plate. In cases of control reactions, 5 μl of the assay buffer was dispensed. This was followed by 25 μl of DIFMUP working stock. The reaction was then initiated by the addition of 20 μl of PTP-1B working stock. The final DIFMUP concentration was 20 μM (˜1.6×Km). The final enzyme concentration was 1 nM and the detergent concentration was 0.0004% (w/v). Typical inhibitor concentrations were from 0.08 to 40 μM. The reaction progress was monitored continuously for 30 min.
Calculations: For data analysis, the last five data points were used to obtain a slope corresponding to the estimated steady-state velocity (Vs), and the overall progress curves were used to obtain the average velocity (Va), by linear regression in both cases. The apparent final potency of inhibitor (Kiapp) was then calculated from Vs data, using the standard hyperbolic inhibition equation. The IC50 values were calculated from Va data using the sigmoidal inhibition equation. % inhibition values were calculated from Va values of inhibitor at 40 μM, and the average Va value of control reactions.

| inhibition at 40 µM | Compound |
| --- | --- |
| 50% | COc1ccc2cc(C(=O)O)ccc2c1CNCc1ccc(OC(F)(F)F)cc1 [Example 1, 6-Methoxy-5-({[4-(trifluoromethoxy)benzyl]amino}methyl)-2-naphthoic acid] |
| 37% | COc1ccc2cc(C(=O)O)ccc2c1CNCc1ccc(F)cc1 [Example 2, 5-{[(4-Fluorobenzyl)amino]methyl)-6-methoxy-2-naphthoic acid] |
| 23% | COc1ccc2cc(C(=O)O)ccc2c1CNCc1ccc(S(N)(=O)=O)cc1 [Example 3, 5-({[4-(Aminosulfonyl)benzyl]amino}methyl)-6-methoxy-2-naphthoic acid] |
| 34% | COc1ccc2cc(C(=O)O)ccc2c1CNCc1ccc(N(C)C)cc1 [Example 4, 5-({[4-(Dimethylamino)benzyl]amino}methyl)-6-methoxy-2-naphthoic acid] |
| 38% | O=C(O)COc1ccc2cc(C(=O)O)ccc2c1CNCc1ccc(OC(F)(F)F)cc1 [Example 5, 6-(Carboxymethoxy)-5-({[4-(trifluoromethoxy)benzyl]amino}methyl)-2-naphthoic acid] |
